From patent US20030040531A1, “Remedies for reperfusion injury containing integrin alphanubeta 3 antagonist” (priority 2000, published 2003)
Where two headings read alike, the source gives them in different places.

Tests used:
[1] = tested on: human vascular smooth muscle cells; experiment: adhesion of human vascular smooth muscle cells to immobilized human vitronectin; type: cell-based; conditions: read-out: concentration (IC50) necessary for inhibition of adhesion to vitronectin
Description: (§1) The adhesion of vascular smooth muscle cells to immobilized human vitronectin was measured in accordance with the method of Liaw et al. (L. Liaw et al., Circ. Res., 74, 214 (1994)). A Dulbecco's phosphate buffer (Dulbecco's PBS(−)) solution of human serum-derived vitronectin adjusted to a concentration of 4 μg/ml was first added to wells (50 μl/well) of a microplate (Maxisorp), and a reaction for immobilization was allowed to proceed at 4° C. overnight. After washing twice with 150 μl of Dulbecco's PBS (−), Dulbecco's PBS (−) containing 10 mg/ml of bovine serum albumin was added, followed by blocking at 37° C. for one hr. The microplate was then washed twice with 150 μl of Dulbecco's PBS (−) to prepare an assay plate.
Separately, human vascular smooth muscle cells cultivated at 37° C. under 5% carbon dioxide in a medium for vascular smooth muscle cells were separated using a Dulbecco's PBS (−) containing trypsin-EDTA, were washed with Dulbecco's PBS (−), and were then suspended in a Dulbecco's modified Eagle's basal medium to a concentration of 2×10^5/ml.
(§2) Next, 50 μl of a Dulbecco's modified Eagle's basal medium containing 20 mg/ml of bovine serum albumin with a medicament added thereto was added to the wells of the human vitronectin-coated assay microplate, followed by pre-cultivation under 5% carbon dioxide at 37° C. for 10 min. Thereafter, 50 μl of the Dulbecco's modified Eagle's basal medium with human vascular smooth muscle cells suspended therein was added thereto, and the plate was thoroughly stirred. A reaction was allowed to proceed under 5% carbon dioxide at 37° C. for 90 min. The reaction solution containing non-adherent cells was then removed, followed by washing three times with Dulbecco's PBS (−). For the adhered cells, 100 μl of Dulbecco's PBS (−) containing 4% paraformaldehyde was added, and immobilization was allowed to proceed at room temperature for 10 min. Next, 100 μl of a Dulbecco's PBS (−) containing 0.5% Toluidine Blue and 4% paraformaldehyde was added, and staining was allowed to proceed at room temperature for 5 min, followed by thorough washing with distilled water. The inside of the wells was then air-dried, and 1% aqueous sodium dodecylsulfate solution was then added to perform cytolysis. The absorbance of the microplate thus obtained was measured at 595 nm. […] The inhibition was calculated by the following equation. IC50 was determined from a primary regression line of the logarithm of each concentration of the test compound and the logarithm of (100−inhibition)/inhibition. [formula]

[2] = tested on: dog vascular smooth muscle cells; experiment: adhesion of dog vascular smooth muscle cells to bovine vitronectin; type: cell-based; conditions: Canis lupus familiaris, read-out: concentration (IC50) necessary for inhibition of adhesion to vitronectin
Description: as §1, §2
Rat vascular smooth muscle cells were cultivated in a medium composed of a mixture of equal amounts of 15% fetal calf serum-containing 199 medium and RPMI 1640 medium. Separately, hamster and dog vascular smooth muscle cells were cultivated in a 10% fetal calf serum-containing Dulbecco's modified Eagle's basal medium. These cultivated cells were then suspended in a Dulbecco's modified Eagle's basal medium to concentrations of 3×10^5 cells/ml (rat), 3×10^5 cells/ml (hamster), and 4×10^5 cells /ml (dog), respectively. Rat vitronectin was used in the adhesion system of rats and hamsters, while bovine vitronectin was used in the adhesion system of dogs.

platelet aggregation = experiment: inhibition of platelet aggregation, dog; type: cell-based; conditions: Canis lupus familiaris, read-out: concentration (IC50) necessary for inhibition of platelet aggregation
U937 cells = experiment: adhesion of human monocytes (U937 cells) to human activated vascular endothelial cells; type: cell-based; conditions: average on three wells±SD, control group 4522±1027
Description: The adhesion of human monocytes to vascular endothelial cells was measured with reference to the method of Murphy et al. (J. F. Murphy et al., Biochem. J. 304, 537 (1994)). Human funicular venoendothelial cells (4×10^4/well), which had been cultivated in a type-I collagen-coated flask containing a 199 medium containing an endothelial cell growth factor (15 μg/ml), heparin (5 U/ml), and 20% fetal calf serum, were cultivated using a type-I collagen-coated microplate in the above medium under 5% carbon dioxide at 37° C. for 2 days to prepare a layer of vascular endothelial cells. The layer of vascular endothelial cells was washed with PBS (−) and was then cultivated in PBS (−) containing 1 U/ml bovine thrombin, 5 mM CaCl2, and 5 mM MgCl2 for 5 min, followed -by washing with PBS(−) containing 10^-6 M D-phenylalanyl-L-prolyl-L-argininechloromethane and with PBS(−).
Next, U937 cells, which had been cultivated in an RPMI 1640 medium containing 10% fetal calf serum, were cultivated in the above medium containing 6 μM 2′,7′-bis(carboxyethyl)carboxyfluorescein tetraacetoxymethyl ester under 5% carbon dioxide at 37° C. for one hr, were washed with PBS (−), and were subjected to fluorescent labeling. The labeled U937 cells (2×10^5/well), the medicament, and 100 μl of an RPMI 1640 medium containing 1% fetal calf serum were added onto the layer of vascular endothelial cells, and an adhesion reaction was allowed to proceed under 5% carbon dioxide at 37° C. for 10 min. Next, nonadherent cells were removed, and 50 mM Tris HCl (pH 8.4) containing 0.1% sodium dodecylsulfate was added to elute the fluorescent dye, followed by fluorometry (excitation wavelength 485 nm, measurement wavelength 530 nm).

[3] = tested on: rat peritoneal cavity macrophage
Description: A Dulbecco's phosphate buffer (PBS (−)) solution of rat serum-derived vitronectin adjusted to a concentration of 5 μg/ml was first added to wells (50 μl/well) of a microplate (Maxisorp), and a reaction for immobilization was allowed to proceed at 4° C. overnight. After washing twice with 150 μl of PBS (−), PBS (−) containing 10 mg/ml of bovine serum albumin was added, followed by blocking at 37° C. for one hr. The microplate was then washed twice with 150 μl of PBS (−) to prepare an assay plate.
Rat peritoneal cavity macrophage was collected after the induction of thioglycolate into the peritoneal cavity. Specifically, a 3% thioglycolate medium was intraperitoneally administered into Wistar male rats (300 to 400 g) at a dose of 100 ml/kg, and, four days after the administration, intraperitoneal fluid and cold PBS (−) (100 ml/kg) injected into the peritoneal cavity were withdrawn to collect macrophage. The macrophage was isolated by removing nonadherent cells. Specifically, the cells collected from the peritoneal cavity were washed twice with PBS (−) and were then cultivated in a Dulbecco's modified Eagle's basal medium containing 0.1% bovine serum albumin under 5% carbon dioxide for 30 min to perform adhesion of macrophage. Next, nonadherent cells were removed, followed by washing with PBS (−). Thereafter, macrophage was collected with a cell scraper. The collected rat macrophage was washed twice with PBS (−) and was then suspended in a Dulbecco's modified Eagle's basal medium to a concentration of 8×10^5/ml. Next, 50 μl of a Dulbecco's modified Eagle's basal medium containing 0.2% bovine serum albumin with a medicament added thereto was added to the wells of the vitronectin-coated assay microplate, followed by pre-cultivation under 5% carbon dioxide at 37° C. for 10 min. Thereafter, 50 μl of the Dulbecco's modified Eagle's basal medium with macrophage suspended therein was added thereto, and the plate was thoroughly stirred. A reaction was allowed to proceed under 5% carbon dioxide at 37° C. for 10 min. […] The absorbance of the microplate thus obtained was measured at 595 nm.

O=C(NCC(NS(=O)(=O)c1ccccc1)C(=O)O)c1ccc(N2CCC(NC3=NCCCN3)CC2)c(F)c1 (stereo in doubt) [formula (IV), (2S)-Benzenesulfonylamino-3-[3-fluoro-4-{4-(1,4,5,6-tetrahydropyrimidin-2-ylamino)-piperidin-1-yl}benzoylamino]propionic Acid]
IC50 [1]: 37 nM | IC50 [2]: 26 nM | IC50 (platelet aggregation): 45 nM | fluorescence intensity (adhered U937 cells) (U937 cells; 10^-6 M): 3710+969 arbitrary unit | fluorescence intensity (adhered U937 cells) (U937 cells; 10^-7 M): 4389+640 arbitrary unit | fluorescence intensity (adhered U937 cells) (U937 cells; 10^−4 M): -34+74 arbitrary unit | fluorescence intensity (adhered U937 cells) (U937 cells; 10^−5 M): 1968±187 arbitrary unit | fluorescence intensity (adhered rat macrophage) ([3]; 0.1 µM): 0.086±0.069 arbitrary unit | fluorescence intensity (adhered rat macrophage) ([3]; 1 µM): 0.031 +0.037 arbitrary unit | fluorescence intensity (adhered rat macrophage) ([3]; 10 µM): 0.012 +0.038 arbitrary unit
